Measurements taken from patent US10202369B2, “1,3-thiazol-2-yl substituted benzamides” (BAYER AKTIENGESELLSCHAFT, priority 2014, dated 2019).
pIC50: −log10 of the molar value.

Experiments:
[1] = In vitro metabolic stability in liver microsomes (calculated Fmax); assay type: in vitro ADME, human; conditions: 1 μM, calculated maximal oral bioavailability
Description: In Vitro Metabolic Stability Assays Determination of in vitro Metabolic Stability in Microsomes (Including Calculation of Hepatic in vivo Blood Clearance (CL) and of Maximal Oral Bioavailability (Fmax))
The metabolic assay was started shortly afterwards by adding the test compound to the incubation at a final volume of 1 mL. Organic solvent in the incubations was limited to ≤0.01% dimethylsulfoxide (DMSO) and ≤1% acetonitrile. […] Samples were frozen at −20° C. overnight, subsequently centrifuged for 15 minutes at 3000 rpm and the supernatant was analyzed with an Agilent 1200 HPLC-system with LCMS/MS detection.
The half-life of a test compound was determined from the concentration-time plot. From the half-life (kel: slope of concentration-time plot; half-life=In2/kel) the intrinsic clearances were calculated. Together with the additional parameters liver blood flow, specific liver weight and microsomal protein content the hepatic in vivo blood clearance (CL) and the maximal oral bioavailability (Fmax) were calculated for the different species.
(§1) Metabolic instability is often the main clearance mechanism of xenobiotica leading to a high CL and low bioavailability which may eventually result in a short half-life and a low exposure after oral administration. Thus, reducing the susceptibility of metabolic degradation usually leads to a more favourable pharmacokinetic profile. When using liver microsomes as incubation matrix main phase I metabolic reactions, typically oxidoreductive reactions by cytochrome P450 enzymes and flavin mono-oxygenases (FMO) and hydrolytic reactions by esterases/amidases/epoxidhydrolases, are described. When the incubation of the test compound is performed in a hepatocyte matrix all potential hepatic metabolic processes (phase I and phase II) are covered.

[2] = tested on: rat hepatocytes; assay: In vitro metabolic stability in rat hepatocytes (calculated Fmax); assay type: in vitro ADME, Han Wistar rats; conditions: 1 μM, calculated maximal oral bioavailability
Description: Determination of in Vitro Metabolic Stability in Rat Hepatocytes (Including Calculation of Hepatic in Vivo Blood Clearance (CL))
Hepatocytes from Han Wistar rats were isolated via a 2-step perfusion method. After perfusion, the liver was carefully removed from the rat: the liver capsule was opened and the hepatocytes were gently shaken out into a Petri dish with ice-cold Williams' medium E (WME). The resulting cell suspension was filtered through sterile gaze in 50 mL falcon tubes and centrifuged at 50×g for 3 min at room temperature. The cell pellet was resuspended in 30 mL WME and centrifuged through a Percoll® gradient for 2 times at 100×g. The hepatocytes were washed again with WME and resuspended in medium containing 5% FCS. Cell viability was determined by trypan blue exclusion. […] The test compound was added to a final concentration of 1 μM. […] Samples were frozen at −20° C. overnight, subsequently centrifuged for 15 minutes at 3000 rpm and the supernatant was analyzed with an Agilent 1200 HPLC-system with LCMS/MS detection.
The half-life of a test compound was determined from the concentration-time plot. From the half-life (kel: slope of concentration-time plot; half-life=In2/kel) the intrinsic clearances were calculated. Together with the additional parameters liver blood flow, amount of liver cells in vivo and in vitro.
as §1

[3] = clinical PhII trials; attributed to blockade of P2X2/3 channels; cited from earlier work
[4] = tested on: vaginal hyperalgesia; assay: Rat dyspareunia model (visceromotor response to vaginal distension); assay type: in vivo, Sprague Dawley rats; conditions: 15 mg/kg oral b.i.d. during 2 weeks
Description: The visceromotor response (VMR) to vaginal distension was used in conscious animals as an objective measure of vaginal sensitivity. Briefly, animals in estrus phase were surgically implanted with biopsies of left uterine horn (3×3 mm) around alternate cascade mesenteric arteries that supply the small intestine (4 pieces) and on the wall of the distal colon (2 pieces). To measure VMR response, 2 Teflon-coated wire electrodes were sutured in the external oblique abdominal muscle, and tunneled subcutaneously to be exteriorized at the base of the neck for future access. On the day of VMR assessment, a lubricated small balloon (1 cm length) was inserted into the mid-vaginal canal. […] The electrodes were connected to an amplifier (Animal Bio Amp, ADlnstruments), and the abdominal electromyographic signal was recorded using a data acquisition system (PowerLab, ADlnstruments) for off-line analysis using LabChart version 7. The number of abdominal muscle contractions was counted manually for each 0.1 ml distension step, as an index of vaginal pain. […] All data were expressed as mean±standard deviation (s.d.), for the number (n) of measured rats per group. […] Planned comparison of means (matched-volume versus vehicle) was performed using a Bonferroni post hoc test, provided that a main effect was detected. […]

[5] = biological target: human P2X3 receptor (Homo sapiens (Human), UniProt P56373); assay: Intracellular calcium measurement (FLIPR, Fluo-4) of antagonist activity at human P2X3 receptor; assay type: cell-based; conditions: human P2X3, FLIPR Fluo-4 calcium, agonist α,β-Me-ATP at EC80; read-out: hP2X3 IC50
human P2X3 receptor, sequence (P56373 whole entry): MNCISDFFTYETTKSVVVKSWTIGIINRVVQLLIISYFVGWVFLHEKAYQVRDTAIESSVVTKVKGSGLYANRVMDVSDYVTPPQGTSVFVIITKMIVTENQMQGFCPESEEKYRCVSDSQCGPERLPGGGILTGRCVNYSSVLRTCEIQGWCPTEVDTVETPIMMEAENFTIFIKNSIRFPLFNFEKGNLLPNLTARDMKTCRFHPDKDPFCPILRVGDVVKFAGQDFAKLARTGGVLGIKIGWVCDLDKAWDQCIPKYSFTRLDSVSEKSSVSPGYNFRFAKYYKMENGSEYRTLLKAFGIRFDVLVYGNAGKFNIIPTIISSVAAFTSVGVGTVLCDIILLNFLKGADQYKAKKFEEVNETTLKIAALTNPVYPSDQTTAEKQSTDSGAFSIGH
Description: (§2) Intracellular Calcium Measurement to Assess Antagonist Activity at Human P2X3 and Human P2X2/3 Receptors
(§3) A fluorescent imaging plate reader (FLEX/FLIPR station; Molecular Devices) was used to monitor intracellular calcium levels using the calcium-chelating dye Fluo-4 (Molecular Probes). […] Cells expressing purinergic receptors P2X3 (human) or P2X2/3 (human) were plated at a density of 15,000 cells/well in collagen-coated 384-well plates approximately 20 hours before beginning the assay. […] The test compound was added in a volume of 5 μl and allowed to incubate for 30 min at 37° C. The final assay DMSO concentration is 1%.
(§4) The agonist, α,β-Me-ATP, was added in a volume of 20 μl at a concentration representing the EC80 value. The fluorescence was measured for an interval of 90 sec at 2 sec intervals and analyzed based on the increase in peak relative fluorescence units (RFU) compared to the basal fluorescence. Peak fluorescence was used to determine the response to agonist obtained at each concentration of test compound by the following equation: % Response=100*(RFU(test compound)−RFU(control))/(RFU(DMSO)−RFU(control))
(§5) The Examples were tested in triplicates per plate and mean values were plotted in Excel XLFit to determine IC5o values at the human P2X3 and human P2X2/3 receptors, percentage of maximal inhibition and the Hill coefficients.

[6] = biological target: human P2X2/3 receptor (Homo sapiens (Human), UniProt P56373+Q9UBL9); assay: Intracellular calcium measurement (FLIPR, Fluo-4) of antagonist activity at human P2X2/3 receptor; assay type: cell-based; conditions: human P2X2/3, FLIPR Fluo-4 calcium, agonist α,β-Me-ATP at EC80; read-out: hP2X2/3 IC50
human P2X2/3 receptor, sequence (P56373 whole entry): as above
human P2X2/3 receptor, sequence (Q9UBL9 whole entry): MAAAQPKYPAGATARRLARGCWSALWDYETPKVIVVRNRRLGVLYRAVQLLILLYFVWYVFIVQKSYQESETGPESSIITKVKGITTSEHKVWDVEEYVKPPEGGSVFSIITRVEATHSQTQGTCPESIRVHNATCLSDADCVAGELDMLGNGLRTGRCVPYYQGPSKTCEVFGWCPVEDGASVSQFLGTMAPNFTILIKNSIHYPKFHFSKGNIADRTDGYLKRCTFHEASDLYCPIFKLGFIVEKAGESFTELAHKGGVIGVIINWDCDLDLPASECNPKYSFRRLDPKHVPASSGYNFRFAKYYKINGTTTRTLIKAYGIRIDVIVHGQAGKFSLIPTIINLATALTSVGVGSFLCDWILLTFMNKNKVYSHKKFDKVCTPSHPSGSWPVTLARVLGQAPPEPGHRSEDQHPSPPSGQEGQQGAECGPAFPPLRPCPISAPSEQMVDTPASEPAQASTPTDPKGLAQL
Description: as §2, §3, §4, §5

Row | Compound | Human liver microsome Fmax [1] [%] | Rat hepatocyte Fmax [2] [%] | other results
1 | Cc1cnc(-c2cc(OC(C)C(C)O)cc(C(=O)N[C@H](C)c3cnc(C(F)(F)F)nc3)c2)s1 (single isomer, unassigned) [Example 163] | 100 | 53 | –
2 | Cc1cnc(-c2cc(OC(C)C(C)O)cc(C(=O)N[C@H](C)c3ccc(C(F)(F)F)nn3)c2)s1 (single isomer, unassigned) [Example 183] | 74 | 43 | –
3 | Cc1cnc(-c2cc(OC(C)C(C)O)cc(C(=O)N[C@H](C)c3cnc(C(F)(F)F)nc3)c2)s1 (single isomer, unassigned) [Example 339] | 94 | 52 | –
4 | Cc1cnc(-c2cc(OC(C)C(C)O)cc(C(=O)N[C@H](C)c3cnc(C(F)(F)F)nc3)c2)s1 (single isomer, unassigned) [Example 340] | 90 | 64 | –
5 | COc1cc(C(C)C)c(Oc2cnc(N)nc2N)cc1S(N)(=O)=O [AF-219] | – | – | taste disturbances in treated subjects [3]: taste disturbances
6 | Cc1cnc(-c2cc(O[C@@H]3CCOC3)cc(C(=O)N[C@H](C)c3cnc(C(F)(F)F)nc3)c2)s1 [Example 11, 3-(5-Methyl-1,3-thiazol-2-yl)-5-[(3R)-tetrahydrofuran-3-yloxy]-N-{(1R)-1-[2-(trifluoromethyl)pyrimidin-5-yl]ethyl}benzamide] | 57 | 52 | Vaginal hyperalgesia compared to vehicle-treated animals [4]: decreased vaginal hyperalgesia
7 | Cc1cnc(-c2cc(O[C@H]3CCOC3)cc(C(=O)N[C@H](C)c3cnc(C(F)(F)F)nc3)c2)s1 [Example 26, 3-(5-methyl-1,3-thiazol-2-yl)-5-[(3S)-tetrahydrofuran-3-yloxy]-N-{(1R)-1-[2-(trifluoromethyl)pyrimidin-5-yl]ethyl}benzamide] | 67 | 56 | –
8 | CCc1cnc(-c2cc(OC[C@H]3CCCO3)cc(C(=O)N[C@H](C)c3cnc(C)cn3)c2)s1 [Example 277, 3-(5-ethyl-1,3-thiazol-2-yl)-N-[(1R)-1-(5-methypyrazin-2-yl)ethyl]-5-[(3S)-tetrahydrofuran-3-ylmethoxy]benzamide] | – | – | pIC50 [5]: 8.22; pIC50 [6]: 7.02
9 | CCc1cnc(-c2cc(OC[C@H]3CN(C)CCO3)cc(C(=O)N[C@H](C)c3ccc(C(F)(F)F)nn3)c2)s1 [Example 419, 3-(5-ethyl-1,3-thiazol-2-yl)-5-{[(2R)-4-methyl-morpholin-2-yl]methoxy}-N-{(1R)-1-[6-(trifluoromethyl)pyridazin-3-yl]ethyl} benzamide] | 74 | 51 | –
